Test results published in patent US11492405B2, “Reducing systemic regulatory t cell levels or activity for treatment of disease and injury of the CNS” (Yeda Research and Development Co. Ltd, priority 2014, dated 2022).

Key:
Foxp3+ Tregs = assay: Conditional ablation of Treg by DTx, flow cytometry of blood and spleen; type: in vivo, mouse
Procedure: (§1) Mice were transcardially perfused with PBS, and tissues were treated as previously described (Baruch et al, 2013). Brains were dissected and the different brain regions were removed under a dissecting microscope (Stemi DV4; Zeiss) in PBS, and tissues were dissociated using the gentleMACS™ dissociator (Miltenyi Biotec). Choroid plexus tissues were isolated from the lateral, third and fourth ventricles of the brain, incubated at 37° C. for 45 min in PBS (with Ca^2+/Mg^2+) containing 400 U/ml collagenase type IV (Worthington Biochemical Corporation), and then manually homogenized by pipetting. Spleens were mashed with the plunger of a syringe and treated with ACK (ammonium chloride potassium) lysing buffer to remove erythrocytes. In all cases, samples were stained according to the manufacturers' protocols. All samples were filtered through a 70 μm nylon mesh, and blocked with anti-Fc CD16/32 (1:100; BD Biosciences). For intracellular staining of IFN-γ, the cells were incubated with […] (10 ng/ml; Sigma-Aldrich) and ionomycin (250 ng/ml; Sigma-Aldrich) for 6 h, and Brefeldin-A (10 μg/ml; Sigma-Aldrich) was added for the last 4 h. Intracellular labeling of cytokines was done with BD Cytofix/Cytoperm™ Plus fixation/permeabilization kit (cat. no. 555028). […] Cells were analyzed on an LSRII cytometer (BD Biosciences) using FlowJo software. […]

5XFAD AD-Tg mice [1] = assay: Flow cytometry of CP IFN-γ-expressing immune cells in 5XFAD AD-Tg mice; type: in vivo, mouse; settings: weekly-GA, end of 1st week (two GA injections)
Procedure: as §1

[2] = test system: APP/PS1 mouse model of AD; settings: weekly administration regimen; cited from earlier work
5XFAD AD-Tg mice [3] = assay: Morris water maze (MWM) in 5XFAD AD-Tg mice; type: in vivo, mouse; settings: weekly-GA vs vehicle (PBS), AD-Tg mice at 6 m
Procedure: Mice were given three trials per day, for 4 consecutive days, to learn to find a hidden platform located 1.5 cm below the water surface in a pool (1.1 m in diameter). The water temperature was kept between 21-22° C. Water was made opaque with milk powder. Within the testing room, only distal visual shape and object cues were available to the mice to aid in location of the submerged platform. The escape latency, i.e., the time required to find and climb onto the platform, was recorded for up to 60 s. Each mouse was allowed to remain on the platform for 15 s and was then removed from the maze to its home cage. […] The inter-trial interval for each mouse was 10 min. On day 5, the platform was removed, and mice were given a single trial lasting 60 s without available escape. On days 6 and 7, the platform was placed in the quadrant opposite the original training quadrant, and the mouse was retrained for three sessions each day. Data were recorded using the EthoVision V7.1 automated tracking system (Noldus Information Technology). Statistical analysis was performed using analysis of variance (ANOVA) and the Bonferroni post-hoc test. All MWM testing was performed between 10 a.m. and 5 p.m. during the lights-off phase.

Substance | depletion of GFP-expressing FoxP3+CD4+ Treg cells (Foxp3+ Tregs; blood and spleen, Foxp3.LuciDTR mice, DTx 8 ng/g i.p. daily for 4 days) [%] | depletion of Foxp3+ cells (Foxp3+ Tregs; splenocytes of AD-Tg/Foxp3-DTR+/− mice, 1 day after last of 4 daily i.p. DTx injections) [%] | IFN-γ-producing cells at the CP (5XFAD AD-Tg mice [1]) | effect in the APP/PS1 mouse model of AD [2] | spatial learning/memory performance in acquisition, probe and reversal phases of the MWM (5XFAD AD-Tg mice [3])
Diphtheria toxin [DTx] | > 99 | ~99 | – | – | –
Glatiramer acetate [GA] | – | – | increase | therapeutic effect | better spatial learning/memory performance
